Source: ChEMBL document CHEMBL5046225, “Discovery and Optimization of Orally Bioavailable Phthalazone and Cinnolone Carboxylic Acid Derivatives as S1P2 Antagonists against Fibrotic Diseases” (J Med Chem, 2021)
Values after ≈ are worked out from the molar mass of the structure shown.

Assays:
[1] = Efflux ratio of apparent permeability across apical to basolateral side in human Caco-2 cells at pH 6.5 at 10 uM incubated for 60 mins by UHPLC analysis; conditions: Caco-2, pH 6.5
[2] = Lipophilicity, logD of the compound at pH 7.4 by chromatographic method; conditions: buffer
[3] = target: T1, Sphingosine 1-phosphate receptor 2 (Homo sapiens, UniProt O95136); assay: Antagonist activity at human S1P2 receptor expressed in CHO cells assessed as inhibition of calcium flux
T1 sequence (O95136 whole entry): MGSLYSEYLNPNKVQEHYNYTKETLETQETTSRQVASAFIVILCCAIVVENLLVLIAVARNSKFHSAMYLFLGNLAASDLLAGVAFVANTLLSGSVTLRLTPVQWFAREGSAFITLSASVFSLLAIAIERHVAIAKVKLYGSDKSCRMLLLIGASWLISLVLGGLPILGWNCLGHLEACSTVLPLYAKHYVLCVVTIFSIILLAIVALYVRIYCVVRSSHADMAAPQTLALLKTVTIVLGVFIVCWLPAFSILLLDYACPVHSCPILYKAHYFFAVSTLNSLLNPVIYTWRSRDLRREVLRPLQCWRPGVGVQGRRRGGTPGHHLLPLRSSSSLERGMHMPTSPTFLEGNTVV

[4] = target: T1, Sphingosine 1-phosphate receptor 2; assay: Antagonist activity at human S1P2 receptor expressed in CHO cells assessed as inhibition of [35S]GTPgammaS binding
[5] = Volume of distribution at steady state in CD1 mouse at 1 mg/kg, iv measured up to 24 hrs by LC-MS/MS analysis; conditions: in vivo
[6] = Half life in CD1 mouse at 1 mg/kg, iv measured up to 24 hrs by LC-MS/MS analysis; conditions: in vivo
[7] = Unbound plasma concentration in CD1 mouse at 5 mg/kg, po or 1 mg/kg, iv measured up to 24 hrs by LC-MS/MS analysis
[8] = Thermodynamic solubility of compound at pH 7.4; conditions: buffer
[9] = Apparent permeability across apical to basolateral side in MDCK-MDR1 cells at 10 uM incubated for 1 hr by LC-MS/MS analysis; conditions: dog
[10] = Efflux ratio of apparent permeability across apical to basolateral side in MDCK-MDR1 cells at 10 uM incubated for 1 hr by LC-MS/MS analysis; conditions: dog
[11] = Apparent permeability across apical to basolateral side in human Caco-2 cells at pH 6.5 at 10 uM incubated for 60 mins by UHPLC analysis; conditions: Caco-2, pH 6.5
[12] = target: T1, Sphingosine 1-phosphate receptor 2
[13] = target: T1, Sphingosine 1-phosphate receptor 2; remark: listed apart in the source
[14] = cells; conditions: Homo sapiens, HFL1
[15] = in vivo; conditions: CD1, mouse, po, 5 mg/kg
[16] = target: T1, Sphingosine 1-phosphate receptor 2; assay: Agonist activity at human S1P2 receptor expressed in CHO cells assessed as increase in calcium flux
[17] = target: Sphingosine 1-phosphate receptor 1 (Homo sapiens, UniProt P21453); assay: Antagonist activity at human S1P1 receptor expressed in CHO cells assessed as inhibition of calcium flux; type: functional, cell-based
Chain of Sphingosine 1-phosphate receptor 1 (P21453 whole entry): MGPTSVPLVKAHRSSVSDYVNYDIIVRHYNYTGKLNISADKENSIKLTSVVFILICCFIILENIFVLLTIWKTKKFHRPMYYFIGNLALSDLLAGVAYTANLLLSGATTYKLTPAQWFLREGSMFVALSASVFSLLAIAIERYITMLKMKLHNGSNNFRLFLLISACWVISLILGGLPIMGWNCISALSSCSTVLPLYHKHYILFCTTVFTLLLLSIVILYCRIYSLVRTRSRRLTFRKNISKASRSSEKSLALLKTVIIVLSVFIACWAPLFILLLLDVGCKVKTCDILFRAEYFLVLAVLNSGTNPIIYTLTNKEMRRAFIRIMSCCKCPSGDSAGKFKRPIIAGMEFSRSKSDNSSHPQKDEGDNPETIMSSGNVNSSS

[18] = target: T1, Sphingosine 1-phosphate receptor 2; assay: Displacement of sphingosine D-erythro [3-3H] I- phosphate from human S1P2 receptor expressed in CHO cell membrane
[19] = target: CYP450 (Homo sapiens, UniProt P04798+P05177+P05181+P08684+P10632+P10635+P11509+P11712+P13584+P20813+P20815+P20853+P24462+P24903+P33260+P33261+P51589+P78329+P98187+Q02928+Q08477+Q16678+Q16696+Q5TCH4+Q6VVX0+Q7Z449+Q8TAV3+Q96SQ9+Q9HB55); assay: Inhibition of CYP450 in human liver microsomes; type: ADME
[20] = target: Cytochrome P450 3A4 (Homo sapiens, UniProt P08684); assay: Induction of CYP3A4 in human cryopreserved hepatocytes assessed as mRNA expression at 10 uM incubated for 72 hrs relative to control; type: ADME, cell-based, Hepatocyte
Chain of Cytochrome P450 3A4 (P08684 whole entry): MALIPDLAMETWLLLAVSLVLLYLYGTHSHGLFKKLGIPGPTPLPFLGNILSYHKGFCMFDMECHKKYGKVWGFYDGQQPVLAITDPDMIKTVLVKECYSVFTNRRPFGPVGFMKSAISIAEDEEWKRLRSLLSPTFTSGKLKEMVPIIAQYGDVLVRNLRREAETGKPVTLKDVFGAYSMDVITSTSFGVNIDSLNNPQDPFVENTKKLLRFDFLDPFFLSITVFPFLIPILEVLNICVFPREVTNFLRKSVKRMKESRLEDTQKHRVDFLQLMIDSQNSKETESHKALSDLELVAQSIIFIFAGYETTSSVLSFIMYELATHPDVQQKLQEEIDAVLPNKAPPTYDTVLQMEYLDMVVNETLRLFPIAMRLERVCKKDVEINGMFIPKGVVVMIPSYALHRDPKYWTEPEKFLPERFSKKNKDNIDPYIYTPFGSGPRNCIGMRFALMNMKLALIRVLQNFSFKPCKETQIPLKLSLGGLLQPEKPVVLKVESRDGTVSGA

[21] = target: T2, PXR (Homo sapiens, UniProt O75469); assay: Activation of PXR in human DPX2 cells at 10 uM incubated for 24 hrs relative to control; type: ADME, cell-based; conditions: read-out: Activity
T2 sequence (O75469 whole entry): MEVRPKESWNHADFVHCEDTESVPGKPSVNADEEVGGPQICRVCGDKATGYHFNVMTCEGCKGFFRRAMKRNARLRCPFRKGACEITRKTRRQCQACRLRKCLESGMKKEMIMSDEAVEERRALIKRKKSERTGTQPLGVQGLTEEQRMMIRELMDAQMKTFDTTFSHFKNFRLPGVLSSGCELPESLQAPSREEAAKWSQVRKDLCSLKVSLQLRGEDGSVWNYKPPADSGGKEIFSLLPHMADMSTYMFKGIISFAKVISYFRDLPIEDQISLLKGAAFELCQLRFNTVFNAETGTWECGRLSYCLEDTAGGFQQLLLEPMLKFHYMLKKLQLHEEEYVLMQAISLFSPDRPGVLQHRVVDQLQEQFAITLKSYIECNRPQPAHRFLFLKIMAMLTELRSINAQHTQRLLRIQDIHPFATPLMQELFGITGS

[22] = target: T1, Sphingosine 1-phosphate receptor 2; assay: Antagonist activity at S1P2 (unknown origin); type: functional

chromatographic logD [2]	IC50 [3]	IC50 [4]	IC50 [16]	IC50 [17]	IC50 [18]	Structure (SMILES)	further results
5.91	> 8130 nM	19200 nM	> 23300 nM	> 19900 nM	3790 nM	COc1cc(OC)c(NC(=O)Cc2cn(C)c3ccccc23)cc1Cl	
2.13	> 6640 nM	17700 nM	> 23300 nM	> 19900 nM	10700 nM	COc1cc(OC)c(NC(=O)Cc2cn(CC(=O)O)c3ccccc23)cc1Cl	
				> 19900 nM		COc1cc(OC)c(NC(=O)Cc2nn(CC(=O)O)c(=O)c3ccccc23)cc1Cl	
1.86	3360 nM	8980 nM	> 23300 nM	> 19900 nM	2010 nM	COc1cc(OC)c(NC(=O)Cn2nc(CC(=O)O)c3ccccc32)cc1Cl	
1.13	> 19900 nM		> 23300 nM			COc1ccc(NC(=O)Cc2nn(CC(=O)O)c(=O)c3ccccc23)c(OC)c1	
5.42	199 nM	473 nM				CCn1nc(CC(=O)Nc2ccc(OC(F)(F)F)c(Cl)c2)c2ccccc2c1=O	

The next lines start with the compound.

Structure (SMILES)	chromatographic logD [2]	IC50 [3]	IC50 [4]	IC50 [16]	IC50 [17]	IC50 [18]	further results
CC(C(=O)O)c1nn(Cc2cn3cc(OCC4CC4)c(C(F)(F)F)cc3n2)c2ccccc2c1=O (racemic)	2.99	3.4 nM	51 nM				efflux ratio at 1 h, 10 µM [1]: 0.4; Vd at 24 h [5]: 0.66 L/kg; half-life at 24 h [6]: 1.9 h; fraction unbound at 24 h [7]: 0.007; solubility thermodynamic [8]: 221 µg/mL (≈ 454 µM); Papp A→B at 1 h, 10 µM [9]: 2.5 ×10⁻⁶ cm/s; efflux ratio at 1 h, 10 µM [10]: 3.7; Papp A→B at 1 h, 10 µM [11]: 15 ×10⁻⁶ cm/s; IC50 [12]: 5 nM; IC50 [13]: 56 nM; IC50 [14]: 0.7 nM; Cmax at 24 h [15]: 3520 ng/mL
CCOc1cc2cn(Cc3nn(CC(=O)O)c(=O)c4ccccc34)nc2cc1Cl		149 nM	113 nM				IC50 [12]: 23 nM; IC50 [13]: 1620 nM; IC50 [14]: 34 nM
C[C@H](C(=O)O)n1nc(Cn2cc3cc(OCC4CC4)c(Cl)cc3n2)c2ccccc2c1=O							IC50 [19]: > 100000 nM; Activity [20]: 4.4%; activity at 24 h, 10 µM [21]: 5.7%
Cc1nn(C)c2nc(NNC(=O)Nc3cc(Cl)nc(Cl)c3)cc(C(C)C)c12							IC50 [22]: 17 nM
